Assay results: patent US20220340665A1, “INHIBITOR AGAINST EXPRESSION OF IMMUNE CHECKPOINT MOLECULE” (RENASCIENCE INC., priority 2019, published 2022)

How the values were obtained:
[1] = test system: cancer cell line (B16F10); test: PD-L1 expression induced by rPAI-1 in B16F10 with STAT3 inhibitor (Experimental Example 18); assay type: cell-based, mouse; conditions: simultaneous addition of rPAI-1 and STAT3 inhibitor
Description: In order to clarify the mechanism of induction of PD-L1 expression by PAI-1, rPAI-1 was added to a culture medium of a cancer cell line (B16F10); after culturing for 6 hours, the cells were collected, and the degree of phosphorylation of JAK/STAT molecules was analyzed.
Further, FIG. 18(B) confirmed that the increase in the PD-L1 expression induced by rPAI-1 was suppressed by simultaneous addition of rPAI-1 and a STAT3 inhibitor (BP-1-102, C188-9).

human PAI-1 [2] = molecular target: T1, human PAI-1 (Homo sapiens, UniProt P05121); test: PAI-1 inhibitory activity, t-PA with S-2288 chromogenic substrate (Reference Experimental Example 1); conditions: system without compound after 30 minutes = 100%
Description: Subsequently, human-derived tissue plasminogen activator (t-PA) (manufactured by American Diagnostica, Inc. (USA); the same applies hereinafter) adjusted to 0.35 pmol/μL was added thereto, and the mixture was further incubated at 37° C. for 15 minutes.

human PAI-1 [3] = molecular target: T1, human PAI-1; test: PAI-1 inhibitory activity, t-PA with Spectrozyme t-PA chromogenic substrate (Reference Experimental Example 2); assay type: biochemical; design: purchased Molecular Innovations, Inc. (USA); conditions: head prints no concentration
Description: Subsequently, human-derived tissue plasminogen activator (t-PA) (manufactured by American Diagnostica, Inc. (USA); the same applies hereinafter) adjusted to 0.05 pmol/μL was added thereto, and the mixture was further incubated at 37° C. for 60 minutes. Then, 0.25 mM of Spectrozyme t-PA synthetic substrate (manufactured by American Diagnostica, Inc. (USA); the same applies hereinafter), which is a chromogenic substrate, was added. […]
Free p-nitroaniline removed from the chromogenic substrate (Spectrozyme t-PA) by t-PA action was measured using a spectrophotometer at an absorbance of 405 nm at 20-minute intervals, for 120 minutes.

[4] = Tables 5 to 7, first value column
[5] = Tables 5 to 7, second value column

T1 sequence (P05121 24-402): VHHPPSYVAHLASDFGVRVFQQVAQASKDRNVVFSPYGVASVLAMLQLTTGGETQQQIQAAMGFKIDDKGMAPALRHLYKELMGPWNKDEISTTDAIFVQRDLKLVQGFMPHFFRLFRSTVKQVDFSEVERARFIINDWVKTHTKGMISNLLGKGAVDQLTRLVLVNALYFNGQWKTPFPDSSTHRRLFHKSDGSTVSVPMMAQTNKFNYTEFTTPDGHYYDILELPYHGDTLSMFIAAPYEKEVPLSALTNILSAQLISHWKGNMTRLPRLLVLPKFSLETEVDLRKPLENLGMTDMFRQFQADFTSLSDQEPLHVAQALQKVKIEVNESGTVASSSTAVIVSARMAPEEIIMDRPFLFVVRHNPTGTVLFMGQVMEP

Structure (SMILES)	increase in the PD-L1 expression induced by rPAI-1 [1]	PAI-1 activity % (human PAI-1 [2]; compound 20 μm (head))	PAI-1 activity % (human PAI-1 [2]; compound 50 μm (head))	PAI-1 activity % (human PAI-1 [3]; [4])	PAI-1 activity % (human PAI-1 [3]; [5])
CN(CC(=O)N(Cc1ccc(C2CCCCC2)cc1)c1ccc(C(=O)O)c(O)c1)S(=O)(=O)c1c(F)c(F)c(F)c(F)c1F [BP-1-102]	suppressed				
O=C(CCCNC(=O)c1cccc(-c2ccoc2)c1)Nc1ccc(Cl)cc1C(=O)O [Example 1]		95.5%	48.9%		
O=C([O-])c1cc(Cl)ccc1NC(=O)C1CCCN(C(=O)c2cccc(-c3ccoc3)c2)C1.[Na+] (stereo not shown) [Example 11]		68.2%	26.1%		
O=C(O)c1cc(Cl)ccc1NC(=O)C1CCCN(C(=O)Cc2cccc(-c3ccoc3)c2)C1 (stereo not shown) [Example 12]		57.7%	15.7%		
O=C(/C=C/c1cccc(-c2cccnc2)c1)Nc1ccc(Cl)cc1C(=O)[O-].[Na+] [Example 103, 5-chloro-2-(((2E)-3-[3-(pyridin-3-yl)phenyl]prop-2-enoyl)amino)sodium benzoate]				34.2%	92.3%
O=C(Nc1ccc(C23CC4CC(CC(C4)C2)C3)cc1)C(=O)Nc1ccc(Cl)cc1C(=O)[O-].[Na+] [Example 106, [(([4-(adamantan-1-yl)phenyl]amino)(oxo)acetyl)amino]-5-sodium chlorobenzoate]				26.3%	88.4%
O=C([O-])c1cc(Cl)ccc1NC(=O)c1cc(-c2ccccc2)nc2ccccc12.[Na+] [Example 107, 5-chloro-2-(((2-phenylquinolin-4-yl)carbonyl)amino)sodium benzoate]				6.7%	100.0%
COc1ccc(S(=O)(=O)Nc2cc(-c3c(O)ccc4ccccc34)c(O)c3ccccc23)cc1 [Example C188-9]	suppressed				
O=C(COc1ccc(C2CCCCC2)cc1)Nc1ccc(Cl)cc1C(=O)O [Existing compound 3, 5-chloro-2-(((4-cyclohexylphenoxy)aceytl)amino)benzoic acid, reference compound]				0.3%	36.3%
